{"source": "paper PMC11106956", "about": "(Malaria Journal, 2024)", "key": {"haemoglobin levels": {"tested_on": "haemoglobin levels", "assay": "Linear regression of pharmacokinetic parameters against change in haemoglobin; haemoglobin follow-up to 28 days", "type": "in vivo, human (African males, Mali)", "conditions": "for Correlation (regression slope) of AUC24 with change in haemoglobin / Correlation (regression slope) of CMAX with change in haemoglobin: slope (95% CI)"}, "methaemoglobin levels": {"tested_on": "methaemoglobin levels", "assay": "Linear regression of pharmacokinetic parameters against change in methaemoglobin", "type": "in vivo, human (African males, Mali)", "conditions": "slope (95% CI)"}, "[1]": {"conditions": "single oral PQ 0.40-0.50 mg/kg; for Half-life (terminal elimination): median (range) in Table 3; for CF, proportional conversion factor between capillary and venous drug measurements, population estimate (%RSE): plasma; for MTT, absorption mean transit time, population estimate (%RSE): each compound modelled separately", "excerpt": "(§1) This study was a part of an open-label, nonrandomized, dose-adjustment trial of the safety of SLD-PQ in G6PD-deficient and G6PD-normal males in Mali without microscopically detected malaria parasite infection. The main clinical trial was separated into two parts, i.e., Part I in adult males (aged 18–50) and Part II in children (aged 5–17). […] Only 28 adult males from the main trial provided pharmacokinetic samples and were included in this study.\n(§2) After collection of day 0 samples, each participant received an oral dose of PQ according to his group assignment, after a fatty snack (biscuits) to minimized gastrointestinal symptoms. The study pharmacist prepared a dose by crushing a 15-mg tablet of PQ (Sanofi, Laval, Canada) in 15 mL of drinking water and administered the dose to the nearest 0.1 mL under direct observation. […] Capillary samples (0.5 mL) were collected at 2, 4, and 6 h post-dose. Both venous and capillary blood were collected using EDTA tubes, and centrifuged at 1100–1300×g for 10–20 min to obtain plasma samples. The samples were store immediately at − 80 °C until analysed.\n(§3) All compounds were analysed using the liquid chromatography–mass spectrometry (LC–MS) method of Avula et al. [14], modified to employ an ACQUITY UHPLC™, BEH Shield RP18 column (100 mm × 2.1 mm I.D., 1.7 mm) equipped with an LC-18 guard column (Vanguard 2.1 × 5 mm, Waters Corp, Milford, MA, USA). PQ, CPQ and PQCG were separated and eluted within 10-min retention time. The mobile phase, run at a flow rate of 0.25 ml/min, consisted of 0.05% formic acid in water (A) water and 0.05% formic acid in acetonitrile (B) and was applied in a linear gradient elution. […] Samples were injected at 10 μL volume. The limits of quantification in plasma were 5 ng/mL for PQ and PQCG, and 1 ng/mL for CPQ. Quality control samples at 20 ng/mL were run at beginning and end of the batch analyses in duplicate. Intra-assay variability was less than 10%.\n(§4) PQ, CPQ, and PQCG concentrations were transformed into their natural logarithms and analysed using a nonlinear mixed-effects modelling approach in NONMEM version 7.4 (Icon Development Solution, Ellicott city, MD). Pirana version 3.0.0 [15], Perl-speaks-NONMEM version 5.3.0 (PsN) [16] and R version 4.2.0 were used for automation, model evaluation, and diagnostics during the model building process. The first-order conditional estimation method with interaction (FOCE-I) was applied for the estimation method. Each compound was modelled separately. Data below the LLOQ was either omitted (M1-method) or incorporated by imputing the first LLOQ data as half of LLOQ (M6-method) [17].\n(§5) Pharmacokinetic parameters were implemented as a log-normal distribution as follows: θi=θTV×expηi,θ where θi is the individual i th pharmacokinetic parameter estimate, θTV is the typical value of the population mean estimate, and ηi,θ is the inter-individual variability of the parameter θ for the i th individual, assumed to be normal distribution with zero mean and variance ω^2 . Estimated inter-individual variability below 10% was fixed to zero.\n(§6) A linear association between capillary and venous plasma concentrations of all compounds was assumed and modelled using an estimated conversion factor at the population level. Unexplained residual errors were modelled separately for capillary and venous plasma concentrations and implemented as an additive error model on the log-transformed concentrations, equivalent to an exponential error on arithmetic scale."}, "[2]": {"conditions": "cited from earlier work"}, "haemoglobin": {"tested_on": "haemoglobin", "conditions": "G6PD-deficient individual, cited from earlier work"}, "clinical": {"assay": "clinical", "conditions": "male, human, plasma, po", "excerpt": "as §1, §2, §3, §4, §5, §6"}, "[3]": {"conditions": "G6PD-deficient individuals (n = 18)"}, "[4]": {"conditions": "G6PD-normal individuals (n = 10)"}, "[5]": {"conditions": "typical individual 62.5 kg, metabolites dosed as PQ molar dose 1:1"}, "[6]": {"conditions": "background statement, literature"}}, "note": "Read-outs that look alike come from different tables or passages of the source.", "data": [{"smiles": "COc1cc(NC(C)CCC(=O)O)c2ncccc2c1", "note": "(stereo not drawn) [Carboxy-primaquine]", "values": [{"measurement": "Correlation (regression slope) of AUC24 with change in haemoglobin", "setting": "haemoglobin levels; [3]", "value": "195 (95% CI: -58.7 to 448) p = 0.123 % HB change per 1 ng·hr/mL"}, {"measurement": "Correlation (regression slope) of CMAX with change in haemoglobin", "setting": "haemoglobin levels; [3]", "value": "9.27 (95% CI: -1.25 to 19.8) p = 0.0803 % HB change per 1 ng/mL"}, {"measurement": "Correlation (regression slope) of AUC24 with change in haemoglobin", "setting": "haemoglobin levels; [4]", "value": "-206 (95% CI: -555 to 143) p = 0.210 % HB change per 1 ng·hr/mL"}, {"measurement": "Correlation (regression slope) of CMAX with change in haemoglobin", "setting": "haemoglobin levels; [4]", "value": "-4.63 (95% CI: -18.4 to 9.13) p = 0.460 % HB change per 1 ng/mL"}, {"measurement": "Correlation (regression slope) of AUC24 with change in methaemoglobin", "setting": "methaemoglobin levels; [3]", "value": "-1914 (95% CI: -8430 to 4602) p-value = 0.534 % mHB change per 1 ng·hr/mL"}, {"measurement": "Correlation (regression slope) of CMAX with change in methaemoglobin", "setting": "methaemoglobin levels; [3]", "value": "-49.4 (95% CI: -341 to 242) p-value = 0.719 % mHB change per 1 ng/mL"}, {"measurement": "Correlation (regression slope) of AUC24 with change in methaemoglobin", "setting": "methaemoglobin levels; [4]", "value": "1948 (95% CI: -12127 to 16023) p-value = 0.720 % mHB change per 1 ng·hr/mL"}, {"measurement": "Correlation (regression slope) of CMAX with change in methaemoglobin", "setting": "methaemoglobin levels; [4]", "value": "119 (95% CI: -351 to 589) p-value = 0.521 % mHB change per 1 ng/mL"}, {"measurement": "Half-life (terminal elimination)", "setting": "[1]; n = 28", "value": "469 (325–1870) h"}, {"measurement": "AUC24, area under the concentration-time curve up to 24 h", "setting": "[1]; median (range), n = 28", "value": "8030 (1490–12,800) h × ng/mL"}, {"measurement": "CMAX, maximum concentration", "setting": "[1]; median (range), n = 28", "value": "338 (74.3–546) ng/mL"}, {"measurement": "TMAX, time to maximum concentration", "setting": "[1]; median (range), n = 28", "value": "4.57 (2.19–18.1) h"}, {"measurement": "CF, proportional conversion factor between capillary and venous drug measurements, population estimate (%RSE)", "setting": "[1]", "value": "69.1 (3.83%)"}, {"measurement": "terminal elimination half-life", "setting": "[1]; sampling only to 24 h", "value": "approximately 19.5 days"}, {"measurement": "MTT, absorption mean transit time, population estimate (%RSE)", "setting": "[1]; typical individual 62.5 kg", "value": "1.24 (11.7%) h"}, {"measurement": "CL/F, apparent elimination clearance, population estimate (%RSE)", "setting": "[1]; [5]", "value": "0.129 (28.5%) L/h"}, {"measurement": "VC/F, apparent volume of distribution of the central compartment, population estimate (%RSE)", "setting": "[1]; [5]", "value": "93.3 (7.00%) L"}, {"measurement": "terminal half-life previously reported", "setting": "[2]; healthy volunteers", "value": 15.6, "unit": "h"}]}, {"smiles": "COc1cc(NC(C)CCCN)c2ncccc2c1", "note": "(stereo not drawn) [Primaquine, reference compound]", "values": [{"measurement": "haemoglobin decline after PQ administration", "setting": "haemoglobin levels; in vivo", "value": "no significant haemoglobin declines"}, {"measurement": "haematological safety", "setting": "haemoglobin levels; in vivo, 0.5 mg/kg", "value": "haematologically safe"}, {"measurement": "Half-life (terminal elimination)", "setting": "[1]; n = 28", "value": "7.42 (7.04–7.93) h"}, {"measurement": "CF, proportional conversion factor between capillary and venous drug measurements, population estimate (%RSE)", "setting": "[1]", "value": "32.9 (6.89%)"}, {"measurement": "MTT, absorption mean transit time, population estimate (%RSE)", "setting": "[1]; typical individual 62.5 kg", "value": "0.563 (18.7%) h"}, {"measurement": "CL/F, apparent elimination clearance, population estimate (%RSE)", "setting": "[1]; [5]", "value": "15.4 (9.57%) L/h"}, {"measurement": "predicted median reduction of haemoglobin", "setting": "haemoglobin; 0.25 mg/kg SLD-PQ, 90% CI 0.12-0.65", "value": 0.35, "unit": "g/dL"}, {"measurement": "predicted median reduction of haemoglobin", "setting": "haemoglobin; 0.40 mg/kg SLD-PQ, 90% CI 0.21-1.00", "value": 0.56, "unit": "g/dL"}, {"measurement": "Tmax", "setting": "clinical", "value": 0.872, "unit": "h"}, {"measurement": "half-life", "setting": "clinical; Half-life (terminal elimination), median (range) in Table 3, single oral PQ 0.40-0.50 mg/kg, n = 28", "value": "~7.42", "unit": "h"}, {"measurement": "bioavailability", "setting": "[2]; [6]", "value": 96, "unit": "%"}, {"measurement": "terminal half-life", "setting": "[2]; [6]", "value": "5 to 6", "unit": "h"}]}]}
